Test results as given in patent publication US20140170158A1, “COMPOSITIONS AND METHODS FOR TREATING OR PREVENTING LUNG DISEASES” (THE JOHNS HOPKINS UNIVERSITY, priority 2012, published 2014).
“Also recorded” adds a separate entry of the source.

Assays:
[1] = target: T1, AT1 receptor (Mus musculus, UniProt P29754); assay: Immunohistochemistry for the AT1 receptor in murine lungs; assay type: in vivo, mice; details: 2 months CS
T1 construct: from tissue; host or cells: fixed lung sections of AKR/J mice
T1 sequence (P29754 1-359): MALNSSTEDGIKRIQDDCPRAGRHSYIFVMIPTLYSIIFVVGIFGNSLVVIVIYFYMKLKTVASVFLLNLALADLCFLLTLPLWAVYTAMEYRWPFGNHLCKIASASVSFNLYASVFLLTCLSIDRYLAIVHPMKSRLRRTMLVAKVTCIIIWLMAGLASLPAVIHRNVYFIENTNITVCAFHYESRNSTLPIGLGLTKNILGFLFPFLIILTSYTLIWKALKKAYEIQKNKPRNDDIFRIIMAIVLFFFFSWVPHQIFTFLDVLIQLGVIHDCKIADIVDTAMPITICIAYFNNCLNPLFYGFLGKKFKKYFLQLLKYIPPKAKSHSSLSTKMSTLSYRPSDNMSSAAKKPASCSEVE
Description: (§1) Six- to eight-week-old AKR/J male mice were divided into 3 groups. The control group was kept in a filtered air environment, and the experimental groups were subjected to CS or CS plus losartan in drinking water. CS exposure was carried out (2 hours per day, 5 days per week) by burning 2R4F reference cigarettes (University of Kentucky, […], Ky., USA) using a smoking machine (Model TE-10; Teague Enterprises) for 6 to 7 weeks. The average concentration of total suspended particulates and carbon monoxide was 90 mg/m and 350 ppm, respectively, which was monitored on a routine basis.
(§2) The AT1 selective antagonist losartan (Merck Co.) was diluted into drinking water at concentrations of 3 mg/kg (low dose) and 30 mg/kg (high dose). Panselective TGF-β-neutralizing antibody (R&D Systems) was administered by intraperitoneal injection according to published protocol (70). Isotype-matched control antibody (R&D Systems) was administered to control mice as described above.

[2] = system: active TGF-β; assay: ELISA of active TGF-β in lung lysates of CS-exposed mice; assay type: in vivo; details: AKR/J and C57BL/6 mice, two weeks of CS exposure, concurrent treatment
Description: as §1, §2

[3] = system: CS-exposed lungs; assay: CS-induced injury measures by immunohistochemistry: oxidative stress, inflammatory cells, proliferation; assay type: in vivo, mice
Description: as §1, §2
Tissue sections were deparaffinized and rehydrated in an ethanol series. Sections were blocked for non-specific binding with 3% normal serum from chicken and incubated with the primary antibodies for 1 hour at room temperature. For immunofluorescence, sections were then incubated with secondary antibodies at 1:200 for 30 minutes at room temperature (Molecular Probes). Sections were counterstained with 4′,6′-diamidinio-2-phenylindole (DAPI) and mounted with Vectashield hard set mounting medium (Vector Labs). Briefly, after incubation with the primary antibody overnight at 4° C., slides were washed with PBST, incubated with an appropriate biotinylated secondary antibody (Jackson ImmunoResearch Inc.), and developed by using ABC and DAB detection reagents (Vector Laboratories). […]

[4] = system: MMP9; assay: Zymography of lung extracts; assay type: in vivo; details: CS-exposed mice
Description: as §1, §2

[5] = system: small airways of chronic CS-exposed mice; assay: Airway histology: wall thickness, Ki67, trichrome, αSMA; assay type: in vivo
Description: Six- to eight-week-old AKR/J male mice were divided into 3 groups. The control group was kept in a filtered air environment, and the experimental groups were subjected to CS or CS plus losartan in drinking water. […] The average concentration of total suspended particulates and carbon monoxide was 90 mg/m and 350 ppm, respectively, which was monitored on a routine basis.
as §2
Mean linear intercept measurements were performed on H&E-stained sections taken at intervals throughout both lungs. Slides were coded, captured by an observer, and masked for identity for the groups. Ten to fifteen images per slide were acquired at ×20 magnification and transferred to a computer screen. Mean chord lengths and mean linear intercepts were assessed by automated morphometry with a macro-operation performed by Metamorph Imaging Software (Universal Imaging, Molecular Devices). Mean airway thickness was measured directly using microscope-captured images at ×40 magnification. Hart's staining was performed per published protocol using either van Gieson or tartrazine counterstaining (71).
Tissue sections were deparaffinized and rehydrated in an ethanol series. Sections were blocked for non-specific binding with 3% normal serum from chicken and incubated with the primary antibodies for 1 hour at room temperature. For immunofluorescence, sections were then incubated with secondary antibodies at 1:200 for 30 minutes at room temperature (Molecular Probes). Sections were counterstained with 4′,6′-diamidinio-2-phenylindole (DAPI) and mounted with Vectashield hard set mounting medium (Vector Labs). Briefly, after incubation with the primary antibody overnight at 4° C., slides were washed with PBST, incubated with an appropriate biotinylated secondary antibody (Jackson ImmunoResearch Inc.), and developed by using ABC and DAB detection reagents (Vector Laboratories). Antibodies were used at the following concentrations: Ki67 (1:50; Santa Cruz Biotechnology Inc.), nitrotyrosine (Abcam), Mac3 (BD Biosciences), CD45R (Santa Cruz Biotechnology Inc.), psmad2 (Cell Signaling Technology), TUNEL (1:25; Abcam), JNK/pJNK (Cell Signaling Technology), Akt/pAkt (Cell Signaling Technology), LAP— TGF-β1 (R&D Systems), CTGF (Abcam), Angiotensin type 1 receptor (Santa Cruz Biotechnology Inc.), and active caspase-3 (Abcam).

[6] = system: lung gene expression pathways; assay: Expression profile analysis of whole lung RNA; assay type: in vivo, mice; details: 2 months CS plus losartan
Description: Six- to eight-week-old AKR/J male mice were divided into 3 groups. The control group was kept in a filtered air environment, and the experimental groups were subjected to CS or CS plus losartan in drinking water. CS exposure was carried out (2 hours per day, 5 days per week) by burning 2R4F reference cigarettes (University of Kentucky, […], Ky., USA) using a smoking machine (Model TE-10; Teague Enterprises) for 6 to 7 weeks. […] Panselective TGF-β-neutralizing antibody (R&D Systems) was administered by intraperitoneal injection according to published protocol (70). Isotype-matched control antibody (R&D Systems) was administered to control mice as described above. Total RNA was extracted from the designated murine lungs, six in each treatment group, using the Trizol Reagent method (Invitrogen, Carlsbad, Calif. 92008, cat. no. 15596-026). Additional purification was performed on RNAeasy columns (Qiagen, Valencia, Calif. 913555, cat. no. 74104). The quality of total RNA samples was assessed using an Agilent 2100 Bioanalyzer (Agilent Technologies, Palo Alto, Calif.). The six RNA samples from each time point were pooled into two groups comprised of three murine specimens. […] The hybridized biotinylated cRNA was detected with streptavidin-Cy3 and quantitated using Illumina's BeadStation 500GX Genetic Analysis Systems scanner. […]

[7] = system: alveolar epithelial apoptosis; assay: TUNEL and active caspase-3 labeling in the airspace; assay type: in vivo; details: CS-exposed mice
Description: as §1, §2
(§3) Tissue sections were deparaffinized and rehydrated in an ethanol series. Sections were blocked for non-specific binding with 3% normal serum from chicken and incubated with the primary antibodies for 1 hour at room temperature. For immunofluorescence, sections were then incubated with secondary antibodies at 1:200 for 30 minutes at room temperature (Molecular Probes). […]

[8] = system: chronic CS-exposed AKR/J mice; assay: Morphometric analysis of airspace dimension and airway attachments in chronic CS-induced emphysema model; assay type: in vivo
Description: as §1, with “The control group was kept in a filtered air environment, and the experimental groups were subjected to CS or CS plus losartan in drinking water.” left out
[…] Panselective TGF-β-neutralizing antibody (R&D Systems) was administered by intraperitoneal injection according to published protocol (70). Isotype-matched control antibody (R&D Systems) was administered to control mice as described above.
Three to five mice of each genotype were studied at the noted ages. For histologic and morphometric analyses, mouse lungs were inflated at a pressure of 25 cm H2O and fixed with 4% PFA in low molecular weight agarose. […]
Mean linear intercept measurements were performed on H&E-stained sections taken at intervals throughout both lungs. […] Mean chord lengths and mean linear intercepts were assessed by automated morphometry with a macro-operation performed by Metamorph Imaging Software (Universal Imaging, Molecular Devices). Mean airway thickness was measured directly using microscope-captured images at ×40 magnification. […]

[9] = system: TGF-β signaling (psmad2); assay: Immunohistochemical staining for psmad2, a marker of TGF-β signaling, in lungs; assay type: in vivo; details: chronic CS-exposed mice
Description: as §1, §2, §3

[10] = system: elastin; assay: Elastin localization by Hart's stain; assay type: in vivo; details: CS-exposed mice
Description: as §1, §2

[11] = system: Akt, JNK, p38; assay: Immunoblotting of activated and total Akt, JNK and p38 in lung lysates; assay type: in vivo, mice; details: CS-exposed lungs, attenuated by CS
Description: as §1, §2
(§4) Whole lung lysates were extracted in M-Per buffer from Pierce. Protein concentrations were determined using the Bio-Rad Protein Assay. Aliquots of 30-50 μg protein were boiled and then loaded onto Tris-HCL gels and transferred electrophoretically to nitrocellulose membranes. Membranes were incubated with the primary antibody for 1 hour at room temperature. Detection was performed by the Pierce West Dura ECL Detection System. […]

[12] = Body weight of CS- or RA-exposed mice; assay type: in vivo; details: for CS-induced weight loss: CS-exposed mice, two months treatment
Description: as §1, §2

[13] = system: chronic CS-exposed AKR/J mice; assay: Measurement of mouse lung mechanics; assay type: in vivo
Description: as §1
as §2, with “above. […]” for “above.”
After being connected they were paralyzed with Succinylcholine (75 mg/kg) and ventilated with a tidal volume of 0.2 mL of 100% oxygen at a rate of 150 breathes/min, with a positive end expiratory pressure (PEEP) of 3 cm H2O. […] One minute later Rrs and Ers were measured (74). […] The expression levels of target genes were determined in triplicate from the standard curve and normalized to Gapdh mRNA level.

[14] = system: MMP12; assay: Western blot analysis of MMP12 expression in lung lysates; assay type: in vivo; details: CS-exposed mice
Description: as §1, §2, §4

- AT1 staining in the airspace walls [1]: normalized
Compound: CCCCc1nc(Cl)c(CO)n1Cc1ccc(-c2ccccc2-c2nn[nH]n2)cc1 [losartan]
- active TGF-β in lung lysates by ELISA [2]: normalized TGF-β in both strains
- inflammatory cell infiltration (alveolar macrophage and lymphocyte numbers) ([3]; AKR/J mice, CS-exposed lungs): reduced inflammatory cell infiltration
- oxidative stress (nitrotyrosine and 8-deoxyguanine immunostaining) ([3]; AKR/J mice, CS-exposed lungs): normalized oxidative stress
- airspace epithelial cell proliferation reduced by CS ([3]; CS-exposed mice): did not normalize
- MMP9 activation [4]: normalized
- airway epithelial thickening (airway mucosal thickness) ([5]; 2 months CS, small airways of similar size): normalized
- airway epithelial proliferation (Ki67 staining) ([5]; CS-exposed mice): trend toward reduction
- density and abundance of αSMA-producing smooth muscle cells surrounding the small airways ([5]; data not shown): not changed
- peribronchiolar collagen deposition (trichrome) ([5]; mice exposed to 3 months of CS): normalized collagen deposition
- oxidoreductase, B cell receptor signaling, chemokine signaling, and cytokine receptor interaction pathways (induced with CS) [6]: repressed with losartan treatment
- stress response and MAPK pathway genes (downregulated with CS) [6]: induced with losartan treatment
- TUNEL labeling in the airspace [7]: attenuated
- active caspase-3 labeling in the airspace [7]: attenuated
- airspace dimension (mean linear intercept) ([8]; 2 months CS, concurrent treatment (losartan 0.6 or 1.2 g/l in drinking water; antibody 10 mg/kg/wk)): marked reduction in the airspace dimension; also recorded: attenuate destructive airspace enlargement
- airway alveolar attachments, a measure of airspace destruction ([8]; CS-exposed): recovery with losartan treatment
- TGF-β signaling (phosphorylated smad2 in alveolar and airway epithelium) [9]: normalized with losartan treatment; also recorded: inhibit chronic CS-induced TGF-β signaling in the lung
- elastin fragmentation in the airspaces [10]: improved with losartan treatment
- JNK and p38 activation [11]: only Akt activation was normalized
- CS-induced weight loss [12]: not improved
- CS-induced weight loss ([12]; listed as Losartan): does not rescue CS-induced weight loss
- body weight of RA-exposed mice ([12]; room air-exposed mice): did not alter body weight
- lung elastance [13]: normalized
- lung size (total lung capacity) [13]: normalized
- MMP12 expression in the lungs [14]: normalized
